We go through 6 compounds from US5137900A, “Therapeutic virginiamycin M1 analogs” (Merck & Co., Inc., priority 1991, dated 1992).

Assay [1] deals with T1, Pancreatic CCK receptor (Rattus norvegicus, UniProt P30551).
T1 construct: Pancreatic receptor membranes were prepared; from tissue; host or cells: rat pancreas membranes
T1 sequence (P30551 1-444): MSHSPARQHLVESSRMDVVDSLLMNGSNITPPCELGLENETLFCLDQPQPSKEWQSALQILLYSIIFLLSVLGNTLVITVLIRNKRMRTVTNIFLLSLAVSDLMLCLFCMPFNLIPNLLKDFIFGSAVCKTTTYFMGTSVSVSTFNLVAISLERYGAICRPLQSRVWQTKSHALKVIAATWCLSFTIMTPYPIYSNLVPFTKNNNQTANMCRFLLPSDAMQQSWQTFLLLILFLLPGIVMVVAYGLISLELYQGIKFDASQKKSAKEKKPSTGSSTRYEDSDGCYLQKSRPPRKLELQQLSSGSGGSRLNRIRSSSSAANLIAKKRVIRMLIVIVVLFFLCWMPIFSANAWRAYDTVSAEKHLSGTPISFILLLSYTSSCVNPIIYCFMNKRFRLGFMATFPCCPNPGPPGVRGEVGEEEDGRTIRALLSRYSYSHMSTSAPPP
Nature of the assay: Pancreatic cholecystokinin receptor binding assay (125I-CCK-8). The settings on record: rat pancreas membranes, 37° C., 30 minutes. On the procedure:
Radiolabeled CCK-8 was purchased from New England Nuclear as ^125 I-CCK-8 Receptor binding was performed according to Innis and Snyder Proc. Natl. Acad. Sci., 77, 6917 (1980), with the minor modification of adding the additional protease inhibitors, phenylmethane sulfonyl fluoride (PMSF) and o-phenanthroline, which have no effect on the ^125 I-CCK receptor binding assay. All assays were performed in triplicate. Pancreatic receptor membranes were prepared by homogenzing a gram of fresh rat pancreas tissue in 30 ml TRIS-HCl (50 mM), pH 7.7 using a Brinkman polytron PT10 (Brinkman). The homogenate was washed twice and collected by centrifugation at 48,000×g at 4° C. for 10 minutes. The membranes were resuspended in assay buffer consisting of 5 mM dithiothieitol, 0.1 mM bacitiacin, 5 mM MgCl2.H2 O, 0.2% heat denatured BSA, 1.2 mM PMSF and 0.5 mM O-phenanthroline at a concentration of 100 ml per gram of pancreas. […] The reaction mixtures were mixed briefly and placed in a 37° C. water bath with gentle shaking for 30 minutes. The reaction mixtures were then diluted with 4 ml of ice-cold TRIS buffer, pH 7.7, containing 1 mg/ml bovine serum albumin and immediately filtered in Watman G F/B filters. The filters were washed with 3×4 ml of the same buffer and the radioactivity associated with the filters was counted in a Beckman Gamma 5500 counter. Broths were prepared by adding two volumes of acetone to original broth; supernatants were freeze dried after centrifugation at 1500 g for 10 minutes. The dried samples were then brought up in methanol/H2 O (1:1) and ready for assay.

The conditions of assay [2]: cited from earlier work.
Assay [3] concerns gastric acid secretion. The following applies: cited from earlier work.

Where only a bound is given, the exact number is not on record here.

The term IC50 denotes the midpoint of a concentration-inhibition curve. In turn, `CC1=C\C=C\C(=O)Cc2nc(co2)C(=O)N2CCC=C2C(=O)O[C@H](C(C)C)[C@H](C)/C=C/C(=O)NC\C=C\1` [Compound III] showed an IC50 in assay [1] greater than 10 µM.

As to `CC1=C\C=C\[C@@H](O)Cc2nc(co2)C(=O)N2CCC=C2C(=O)O[C@H](C(C)C)[C@H](C)/C=C/C(=O)NC\C=C\1` [Compound I], in assay [1], the IC50 was greater than 10 µM.

As for `CC1=C\[C@@H](O)CC(=O)Cc2nc(co2)C(=O)N2CCC=C2C(=O)O[C@H](C(C)C)[C@H](C)/C=C/C(=O)NC\C=C\1` [Virginiamycin M1], in assay [1], the IC50 is greater than 100 µM.

On to “C-terminal octapeptide: C-terminal octapeptide of CCK”, for which the “efficacy relative to CCK-33” value in assay [2] (compared with CCK-33) is on record as “same efficacy”. The “potency relative to CCK-33” value in assay [2] (more potent than CCK-33) was “approximately ten”.

For Gastrin-17, the “potency relative to Gastrin-13” value in assay [3] (more potent than Gastrin-13, gastric acid secretion) is 2.5 times. In assay [3] (more potent than Gastrin-34, gastric acid secretion), the “potency relative to Gastrin-34” value is 5 times.

`CC1=C\C=C\[C@H](O)Cc2nc(co2)C(=O)N2CCC=C2C(=O)O[C@H](C(C)C)[C@H](C)/C=C/C(=O)NC\C=C\1` [Compound II]: the IC50 in assay [1] is greater than 10 µM.
